Laboratory results: patent US20240317727A1 (Duke University, priority 2018, published 2024)

Key:
[1] = target: T1, recombinant HSF1 DNA-binding domain (DBD) (Homo sapiens, UniProt Q00613); assay: Differential Scanning Fluorimetry (DSF), HSF1 DBD melting temperature
T1 sequence (Q00613 15-120): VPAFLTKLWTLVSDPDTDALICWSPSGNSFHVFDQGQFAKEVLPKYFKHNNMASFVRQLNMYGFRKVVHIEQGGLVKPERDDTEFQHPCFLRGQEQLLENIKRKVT

[2] = system: Hsp27, Hsp70, Hsp90 and p23; assay: Chaperone protein levels in C4-2 cells, immunoblot; assay type: cell-based, human; conditions: FIG. 4A/4B
[3] = system: HSF1 regulated transcripts; assay: HSF1 regulated transcripts in C4-2 cells; assay type: cell-based, human; conditions: FIG. 4C
[4] = 7-week Maximal Tolerated Dose (MTD) study in mice; assay type: in vivo; conditions: 25 mpk three times per week, intra-peritoneal, 7 weeks
[5] = system: C4/2 prostate cancer cells; assay: Mouse xenograft model of Prostate Cancer; assay type: in vivo; conditions: nude mice, 25 mg/kg every other day intraperitoneal, vs vehicle
Protocol: FIGS. 7A and 7B are graphs showing that the compounds of the disclosure inhibit tumor growth in a mouse xenograft model of Prostate Cancer. Nude mice were inoculated on their flank with one million C4/2 prostate cancer cells (n=20 mice). One week after inoculation, tumors were apparent and mice were then treated with either vehicle (n=10 mice) or Compound 0017 (n=10 mice) at 25 mg/kg every other day by intraperitoneal administration. On the indicated days after the start of vehicle or Compound 0017 administration, tumors were measured in situ with a caliper and tumor volume calculated in cubic millimeters (FIG. 7A). Simultaneously, mouse weight was determined (FIG. 7B). Error bars represent standard error of the mean. **=P<0.01 in accordance with one embodiment of the present disclosure.

RPMI-8226 = assay: NCI60 cell growth and viability: RPMI-8226; assay type: cell-based; conditions: RPMI-8226, Leukemia, two days
EKVX = assay: NCI60 cell growth and viability: EKVX; assay type: cell-based; conditions: Non-Small Cell Lung Cancer, two days
HOP-62 = assay: NCI60 cell growth and viability: HOP-62; assay type: cell-based; conditions: HOP-62, Non-Small Cell Lung Cancer, two days
NCI-H226 = assay type: cell-based; conditions: NCI-H226, Non-Small Cell Lung Cancer, two days
NCI-H460 = assay type: cell-based; conditions: NCI-H460, Non-Small Cell Lung Cancer, two days
NCI-H522 = assay type: cell-based; conditions: NCI-H522, Non-Small Cell Lung Cancer, two days
U251 = assay: NCI60 cell growth and viability: U251; assay type: cell-based; conditions: U251, CNS Cancer, two days
SK-MEL-5 = assay: NCI60 cell growth and viability: SK-MEL-5; assay type: cell-based; conditions: SK-MEL-5, Melanoma, two days
OVCAR-5 = assay: NCI60 cell growth and viability: OVCAR-5; assay type: cell-based; conditions: OVCAR-5, Ovarian Cancer, two days
OVCAR-8 = assay: NCI60 cell growth and viability: OVCAR-8; assay type: cell-based; conditions: OVCAR-8, Ovarian Cancer, two days
NCI/ADR-RES = assay: NCI60 cell growth and viability: NCI/ADR-RES; assay type: cell-based; conditions: Ovarian Cancer, two days
A498 = assay: NCI60 cell growth and viability: A498; assay type: cell-based; conditions: A498, Renal Cancer, two days
RXF 393 = assay: NCI60 cell growth and viability: RXF 393; assay type: cell-based; conditions: RXF 393, Renal Cancer, two days
MDA-MB-231 = assay: NCI60 cell growth and viability: MDA-MB-231; assay type: cell-based; conditions: MDA-MB-231, Breast Cancer, two days
BT-549 = assay: NCI60 cell growth and viability: BT-549; assay type: cell-based; conditions: BT-549, Breast Cancer, two days
T-47D = assay: NCI60 cell growth and viability: T-47D; assay type: cell-based; conditions: Breast Cancer, two days
[6] = Homo sapiens, 48 h, read-out: log10 [GI50 (M)] (converted)
[7] = Homo sapiens, 48 h, read-out: log10 [LC50 (M)] (converted)

O=C(Nc1ccc(F)cc1)Nc1ccc(Cl)c([N+](=O)[O-])c1 [Compound 0017, 1-(4-chloro-3-nitrophenyl)-3-(4-fluorophenyl)urea]
ΔTm at 25 µM ([1]; Table 1, 5 μM HSF1 DBD, 25PM Compound, positive = stabilizes, negative = destabilizes HSF1): 3 °C
binding to HSF1 ([1]; thermal denaturation assay): binds HSF1
steady-state protein level of Hsp27, Hsp70, Hsp90 and p23 [2]: dose-dependently reduced
HSF1 negatively regulated transcripts [3]: de-repressed
expression of HSF1 positively regulated transcripts [3]: dose-dependently repressed
tolerability [4]: well tolerated
mouse weight ([5]; FIG. 7B): without impacting the weight
tumor growth (tumor volume) ([5]; C4-2 derived tumors, 21-day, FIG. 7A): inhibits the growth
GI50 (RPMI-8226; [6]): 1.91e-06 M
CC50 (RPMI-8226; [7]): ≥ 0.0001 M
log10 [TGI (M)] (RPMI-8226): −5.07 log10 M
GI50 (EKVX; [6]): 2.82e-06 M
CC50 (EKVX; [7]): 6.17e-05 M
log10 [TGI (M)] (EKVX): −4.96 log10 M
log10 [TGI (M)] (HOP-62): −4.80 log10 M
GI50 (HOP-62; [6]): 3.8e-06 M
CC50 (HOP-62; [7]): 5.62e-05 M
GI50 (NCI-H226; [6]): 2.29e-06 M
LC50 (NCI-H226; [7]): 3.63e-05 M
log10 [TGI (M)] (NCI-H226): −5.03 log10 M
GI50 (NCI-H460; [6]): 2.69e-06 M
CC50 (NCI-H460; [7]): 4.57e-05 M
log10 [TGI (M)] (NCI-H460): −4.94 log10 M
GI50 (NCI-H522; [6]): 2.45e-06 M
CC50 (NCI-H522; [7]): 4.68e-05 M
log10 [TGI (M)] (NCI-H522): −4.97 log10 M
GI50 (U251; Homo sapiens, U-251, 48 h, read-out: log10 [GI50 (M)] (converted)): 3.16e-06 M
CC50 (U251; Homo sapiens, U-251, 48 h, read-out: log10 [LC50 (M)] (converted)): 4.37e-05 M
log10 [TGI (M)] (U251): −4.90 log10 M
GI50 (SK-MEL-5; [6]): 1.78e-06 M
CC50 (SK-MEL-5; [7]): 5.89e-06 M
log10 [TGI (M)] (SK-MEL-5): −5.49 log10 M
GI50 (OVCAR-5; [6]): 3.55e-06 M
CC50 (OVCAR-5; [7]): 6.46e-05 M
log10 [TGI (M)] (OVCAR-5): −4.83 log10 M
GI50 (OVCAR-8; [6]): 2.95e-06 M
CC50 (OVCAR-8; [7]): ≥ 0.0001 M
log10 [TGI (M)] (OVCAR-8): −4.82 log10 M
GI50 (NCI/ADR-RES; [6]): 2.57e-06 M
CC50 (NCI/ADR-RES; [7]): ≥ 0.0001 M
log10 [TGI (M)] (NCI/ADR-RES): −4.99 log10 M
log10 [TGI (M)] (A498): −5.24 log10 M
GI50 (A498; [6]): 1.82e-06 M
CC50 (A498; [7]): 2.34e-05 M
GI50 (RXF 393; [6]): 1.74e-06 M
CC50 (RXF 393; [7]): 2.82e-05 M
log10 [TGI (M)] (RXF 393): −5.17 log10 M
GI50 (MDA-MB-231; [6]): 2.51e-06 M
CC50 (MDA-MB-231; [7]): 3.39e-05 M
log10 [TGI (M)] (MDA-MB-231): −5.19 log10 M
log10 [TGI (M)] (BT-549): −4.97 log10 M
GI50 (BT-549; [6]): 2.88e-06 M
CC50 (BT-549; [7]): 3.31e-05 M
log10 [TGI (M)] (T-47D): −5.01 log10 M
GI50 (T-47D; Homo sapiens, T47D, 48 h, read-out: log10 [GI50 (M)] (converted)): 2.19e-06 M
CC50 (T-47D; Homo sapiens, T47D, 48 h, read-out: log10 [LC50 (M)] (converted)): 5.13e-05 M
